Legend:
Format in all cases: physicochemical
[1] = Physical properties of bulk powder / final granulate (moisture, densities, compressibility, flowability, angle of repose)
Protocol: Therefore, an oral pharmaceutical dosage needs a high dose of eprosartan mesylate to be incorporated into the pharmaceutical formulation in order to achieve the desired biological effect (here: significant reduction of blood pressure). The recommended daily starting and usual maintenance dose of eprosartan mesylate when used as monotherapy is 735.8 mg, equivalent to 600 mg eprosartan, available as the commercial Teveten 600 mg tablets. Therefore, the amount of excipients, required to achieve satisfactory technological properties (i.e. flowability, compressibility) should be the least possible to keep the weight of the tablet as low as possible (i.e. less than 1000 mg). Solubility, flowability or compressibility can be determined by using known methods in the art, for example the methods explained in the European Pharmacopoeia, 6th Edition. Larger tablets are in the light of patient compliance less preferred. WO 2006/052461 A1 proposes to enhance bioavailability of eprosartan by addition of substantial amounts of a solubilizer and an emulsifier.
Physical properties of briquetting powder as well as final mixture are important for a successful technological procedure using NAMADG.
Further, the impact of various nonaqueos liquid excipients on the formulation of Eprosartan tablets obtained from Examples 3 to 7 (cf. Tables 2 and 3), referring to a matrix of 1000 mg (mass after NAMADG+briquetting+sieving+blending), are summarized in Table 4.

[2] = Hygroscopicity; details: at over 60% RH
Protocol: Hygroscopicity of an API or excipient can be measured by methods known to a skilled person. Mainly, such methods comprise determining the mass of small amounts of sample (i.e. 5-10 mg) as a function of time, while varying the controlled relative humidity and/or temperature in the environment. Data on hygroscopicity of mainly used excipients can be obtained from Handbook of Pharmaceutical Excipients, 4th edition, Rowe R C, Sheskey P J, Weller P J, eds.; Pharmaceutical Press and American Pharmaceutical Association, London-Washington, UK-USA, 2003.

[3] = X-ray diffraction check of eprosartan mesylate form (physical stability during processing); details: ambient temperature and humidity used throughout the NAMADG-based method
Protocol: In order to test the ability of the NAMADG process principle according to the present invention for preparing tablets without occurrence different polymorphic forms of the API in the product, a placebo powder without API and anhydrous eprosartan mesylate processed according to Examples 2 to 7 were investigated. All examples were checked for eprosartan form. For comparison tests were conducted after conventional wet granulation conditions.
As a result, physical stability of the eprosartan mesylate was proven during processes when using the most critical API form, i.e. the anhydrate. […] The final tablet form and placebo powder were analyzed by X-ray diffraction (XRD) pattern to confirm presence of anhydrous form of eprosartan mesylate. More generally, X-ray diffraction (XRD) pattern can be obtained by methods known in the art, for example using Philips X'Pert PRO diffractometer with X'Celerator detector while exposing the searched material to CuKa radiation.

[4] = bulk eprosartan, particle size <10μ

| Angle of repose (°) [1, 4] [°] | Compressibility (%) [1, 4] [%] | Flow density [1, 4] [mL/g] | Moisture (%) [1, 4] | Tapped density [1, 4] [mL/g] | flowability [1, 4] [g/s] | flowability ([1]; drug per se, sticking on punches) | hygroscopicity [2] | physical and chemical stability [3] | Compound |
| --- | --- | --- | --- | --- | --- | --- | --- | --- | --- |
| >43 | >30 | >4.00 | 0.1-0.5% | >3.00 | <0.10 | – | – | – | CCCCc1ncc(/C=C(\Cc2cccs2)C(=O)O)n1Cc1ccc(C(=O)O)cc1 [Bulk eprosartan] |
| – | – | – | – | – | – | below 0.15 g/sec | hygroscopic | physically and chemically stable | CCCCc1ncc(/C=C(\Cc2cccs2)C(=O)O)n1Cc1ccc(C(=O)O)cc1.CS(=O)(=O)O [eprosartan mesylate, (E)-α-[2-n-butyl-1-[(4-carboxyphenyl)methyl]-1H-imidazol-5-yl]methylene-2-thiophenepropionic acid monomethanesulfonate] |
